# Measured values as given in ChEMBL document CHEMBL1132956 (J Med Chem, 2000).
# Legend:
# [1] = species: Homo sapiens; test: tissue or blood
# Description: In vitro assay for PGE-2 production as a function of COX-2 inhibition in whole human blood cultured with lipopolysaccharide (LPS)
# [2] = species: Homo sapiens; test: tissue or blood; remark: listed apart in the source
# Description: Analysis of TXB2 as a function of COX-1 activity in heparinized human whole blood.
# [3] = target: Prostaglandin G/H synthase 1 (Homo sapiens, UniProt P23219)
# Sequence of Prostaglandin G/H synthase 1 (P23219 whole entry): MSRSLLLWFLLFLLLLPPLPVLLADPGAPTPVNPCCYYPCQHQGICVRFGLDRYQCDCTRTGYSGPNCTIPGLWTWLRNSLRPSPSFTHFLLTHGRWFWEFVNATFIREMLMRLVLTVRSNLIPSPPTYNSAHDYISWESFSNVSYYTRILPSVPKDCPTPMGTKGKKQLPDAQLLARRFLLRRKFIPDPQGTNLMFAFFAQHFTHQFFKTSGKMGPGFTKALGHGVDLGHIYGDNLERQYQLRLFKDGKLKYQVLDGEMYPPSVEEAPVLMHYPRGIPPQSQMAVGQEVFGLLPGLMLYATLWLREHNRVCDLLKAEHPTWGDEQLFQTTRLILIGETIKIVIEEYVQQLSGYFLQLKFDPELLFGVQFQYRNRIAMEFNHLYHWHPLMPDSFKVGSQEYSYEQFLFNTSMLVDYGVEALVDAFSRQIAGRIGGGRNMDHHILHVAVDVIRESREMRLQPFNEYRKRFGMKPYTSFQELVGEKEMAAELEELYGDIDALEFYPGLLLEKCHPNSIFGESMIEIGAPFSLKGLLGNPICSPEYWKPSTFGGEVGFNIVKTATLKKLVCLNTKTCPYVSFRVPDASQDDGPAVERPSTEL
# Description: In Vitro activity of compound against human recombinant Prostaglandin G/H synthase 1
IC50 [1],IC50 [2],IC50 [3],SMILES
0.164 µM,6.67 µM,–,Cc1ccc(-c2cc(C(F)(F)F)nn2-c2ccc(S(N)(=O)=O)cc2)cc1 [CELECOXIB]
0.329 µM,> 50 µM,1120 µM,NS(=O)(=O)c1ccc(-c2c(-c3ccccc3)noc2CO)cc1 [HYDROXYLATED DERIVATIVE]
0.89 µM,25.4 µM,–,Cc1onc(-c2ccccc2)c1-c1ccc(S(N)(=O)=O)cc1 [VALDECOXIB]
